Measurements from publication PMC11337205, “Unraveling Interspecies Differences in the Phase I Hepatic Metabolism of Alternariol and Alternariol Monomethyl Ether: Closing Data Gaps for a Comprehensive Risk Assessment” (Chemical Research in Toxicology, 2024).

Experiments:
[1] = Phase I metabolism kinetics (parent toxin loss) in NADPH-fortified porcine liver microsomes, LC-MS/MS; format: in vitro ADME, pig; details: for microsomal CLint: Large White, pH 7.4, porcine LMs, read-out: CLint (intrinsic clearance)
Description: (§1) Pooled human LMs and pooled Sprague–Dawley rat hepatic microsomes, both originating from male donors, were purchased from Sigma-Aldrich (St. Louis, MO, USA) and Gibco, Thermo Fisher Scientific (Waltham, MA, USA), respectively. Porcine LMs were prepared according to an in-house-developed protocol based on the publication of Knights et al.[32] The liver of an approximately four-month-old female “Large White” (or “German Edelschwein”) pig was obtained from a local slaughterhouse. After slaughtering, the liver was placed on ice for about an hour, kept in ice-cold 50 mM tris(hydroxymethyl)aminomethane hydrochloride (Tris–HCl) (pH 7.4) for an additional hour while being transported, and processed immediately.
(§2) The kinetics of the phase I metabolism of AOH and AME was investigated by incubating human, rat (both 1 mg protein/mL), and porcine LMs (2 mg protein/mL) with 1, 10, 20, 50, and 100 μM AOH or 1, 10, 20, and 50 μM AME based on the protocol by Al-Subeihi et al.[34] The incubation solution contained a final concentration of 3 mM NADPH and 1 mM ascorbic acid in 200 mM Tris–HCl (pH 7.4). After preincubation (37 °C, 1 min, mixing at 250–300 rpm), the toxin stock was added in a 1:100 dilution, resulting in a total DMSO content of 1% and the desired toxin concentration. DMSO was selected for this assay because it is the least inhibitory of the solvents studied by Busby et al. on CYP1A1,[35] the primary enzyme involved in the hydroxylation of AOH and AME.[26] The well-established solubility of the test compounds in DMSO and DMSO-containing aqueous buffers facilitated laboratory work and ensured consistency with existing literature, thereby improving the comparability of results across studies, including those of Pfeiffer and colleagues.[25] In a preliminary investigation, incubation times of 5 and 10 min were chosen because they fall within the linear range of the transformation rate–time relationship, thereby ensuring initial rate conditions (Figure S1). When the selected incubation time (0–10 min) passed, one part of the sample was pipetted into two parts of ice-cold extraction solvent (acetonitrile–methanol, 1:1, v/v) for reaction termination. Subsequently, the samples were placed into the freezer (−20 °C) for at least an hour, centrifuged (15 min, 18,000g, 4 °C), and further diluted in methanol–water (3:7, v/v) prior to LC–MS measurements. In the solvent control, the toxin was substituted with DMSO in the incubation solution. Control incubations were performed without the cofactor NADPH or with heat-inactivated microsomes (98 °C, 10 min, mixing at 300 rpm).
(§3) The quantification of selected analytes using external calibration (MS parameters listed in Supporting Information Table S1) was conducted on a high-performance liquid chromatographic system (Dionex UltiMate 3000 UHPLC, Dionex Softron GmbH, Germering, Germany) coupled to a triple quadrupole mass spectrometer (TSQ Vantage, Thermo Fisher Scientific, Waltham, MA, USA), equipped with a heated electrospray ionization (ESI) interface. The applied analytical method is based on Puntscher et al.[28],[36] with slight modifications, which are specified below.
(§4) In brief, the Ascentis Express C18 column (10 cm × 2.1 mm, 2.7 μm, Supelco, Munich, DE), equipped with the Phenomenex SecurityGuard (C18 Cartridges, 4 × 2.0 mm ID, Phenomenex Ltd. Deutschland, Aschaffenburg, Germany), served as the stationary phase. Eluent A was aqueous ammonium acetate (5 mM, pH adjusted to 8.6 with a 25% ammonia solution), and eluent B was methanol. During the first minute, the column was kept at 30% eluent B. Subsequently, the eluent B content was linearly raised to 100% within 6 min. Thereafter, the column was washed with 100% eluent B for 1.5 min. Lastly, the column was re-equilibrated at the initial conditions, reaching an overall run time of 10 min. The autosampler compartment was kept at 10 °C, while the column oven temperature was maintained at 30 °C. […]

[2] = Phase I metabolism kinetics (parent toxin loss) in NADPH-fortified human liver microsomes, LC-MS/MS; format: in vitro ADME; details: for microsomal CLint: human, pH 7.4, human LMs, read-out: CLint (intrinsic clearance)
Description: as §1, §2, §3, §4

[3] = Pattern of oxidative metabolites in rat LMs by HR-MS; format: in vitro ADME, Sprague–Dawley rat; details: rat LMs incubated with AME
Description: The kinetics of the phase I metabolism of AOH and AME was investigated by incubating human, rat (both 1 mg protein/mL), and porcine LMs (2 mg protein/mL) with 1, 10, 20, 50, and 100 μM AOH or 1, 10, 20, and 50 μM AME based on the protocol by Al-Subeihi et al.[34] The incubation solution contained a final concentration of 3 mM NADPH and 1 mM ascorbic acid in 200 mM Tris–HCl (pH 7.4). After preincubation (37 °C, 1 min, mixing at 250–300 rpm), the toxin stock was added in a 1:100 dilution, resulting in a total DMSO content of 1% and the desired toxin concentration. DMSO was selected for this assay because it is the least inhibitory of the solvents studied by Busby et al. on CYP1A1,[35] the primary enzyme involved in the hydroxylation of AOH and AME.[26] The well-established solubility of the test compounds in DMSO and DMSO-containing aqueous buffers facilitated laboratory work and ensured consistency with existing literature, thereby improving the comparability of results across studies, including those of Pfeiffer and colleagues.[25] […]
Pooled high-resolution MS (HR-MS) samples were analyzed on a Vanquish UHPLC system (Thermo Fisher Scientific, Waltham, MA, USA) connected to a dual-pressure linear trap-quadrupole Orbitrap mass analyzer (Velos ETD, Thermo Fisher Scientific, Waltham, MA, USA). […]

[4] = Pattern of oxidative metabolites in human LMs by HR-MS; format: in vitro ADME; details: human LMs incubated with AME
Description: as §2
Pooled high-resolution MS (HR-MS) samples were analyzed on a Vanquish UHPLC system (Thermo Fisher Scientific, Waltham, MA, USA) connected to a dual-pressure linear trap-quadrupole Orbitrap mass analyzer (Velos ETD, Thermo Fisher Scientific, Waltham, MA, USA). The heated ESI interface (source heater temperature: 400 °C) was operated in both positive and negative modes. The mobile and stationary phases were the same as those for the targeted analysis. The column compartment temperature was kept at 40 °C. A multistep gradient was applied at a flow rate of 0.4 mL/min and started with rinsing the column for 1 min at 10% eluent B. Then, the organic content was linearly raised to 100% until the 11th minute. Subsequently, the column was purged with 100% eluent B for two additional minutes. […]

[5] = oral exposure, radiolabeled AOH, male NMRI mice; cited from earlier work
[6] = Caco-2 cell monolayers; cited from earlier work

Cc1cc(O)cc2oc(=O)c3c(O)cc(O)cc3c12 [AOH, alternariol]
Km ([1]; female, Large White (German Edelschwein), pig, liver microsomes, pH 7.4, porcine LMs 2 mg protein/mL, NADPH, within 10 min, Michaelis–Menten model, read-out: Km (Michaelis constant)): 672 µM | microsomal CLint ([1]; female, pig, liver microsomes, Michaelis–Menten model, ratio Vmax/Km): 8.52 µL/min/mg | microsomal CLint ([1]; female, pig, liver microsomes, linear regression, lower concentration range): 6.56 µL/min/mg | Concentration decrease ([1]; porcine LMs, 1 µM toxin, 5 min): 20% | Concentration decrease ([1]; porcine LMs, 1 µM toxin, 10 min): 47% | Concentration decrease ([1]; porcine LMs, 10 µM toxin, 5 min): 6% | Concentration decrease ([1]; porcine LMs, 10 µM toxin, 10 min): 16% | Concentration decrease ([1]; porcine LMs, 20 µM toxin, 5 min): 2% | Concentration decrease ([1]; porcine LMs, 20 µM toxin, 10 min): 15% | Concentration decrease ([1]; porcine LMs, 50 µM toxin, 5 min): 11% | Concentration decrease ([1]; porcine LMs, 50 µM toxin, 10 min): 14% | Concentration decrease ([1]; porcine LMs, 100 µM toxin, 5 min): 12% | Concentration decrease ([1]; porcine LMs, 100 µM toxin, 10 min): 14% | Vmax (maximum transformation rate) ([1]; porcine LMs, within 10 min, Michaelis–Menten model): 5730 pmol/mg/min | Concentration decrease ([2]; human LMs, 1 µM toxin, 5 min): 28% | Concentration decrease ([2]; human LMs, 1 µM toxin, 10 min): 53% | Concentration decrease ([2]; human LMs, 10 µM toxin, 5 min): 11% | Concentration decrease ([2]; human LMs, 10 µM toxin, 10 min): 17% | Concentration decrease ([2]; human LMs, 20 µM toxin, 5 min): 10% | Concentration decrease ([2]; human LMs, 20 µM toxin, 10 min): 20% | Concentration decrease ([2]; human LMs, 50 µM toxin, 5 min): 12% | Concentration decrease ([2]; human LMs, 50 µM toxin, 10 min): 22% | Concentration decrease ([2]; human LMs, 100 µM toxin, 5 min): 20% | Concentration decrease ([2]; human LMs, 100 µM toxin, 10 min): 39% | Vmax (maximum transformation rate) ([2]; human LMs, within 10 min, Michaelis–Menten model): 3370 pmol/mg/min | microsomal CLint ([2]; male, liver microsomes, Michaelis–Menten model, ratio Vmax/Km): 25.8 µL/min/mg | microsomal CLint ([2]; male, liver microsomes, linear regression, lower concentration range): 19.9 µL/min/mg | Km ([2]; male, liver microsomes, pH 7.4, human LMs 1 mg protein/mL, NADPH, within 10 min, Michaelis–Menten model, read-out: Km (Michaelis constant)): 131 µM | relative abundance among phase I metabolites (in words) [3]: one of the main metabolites | relative abundance among phase I metabolites (in words) [4]: small amounts | bioavailability [5]: less than 10% | intestinal absorption [6]: limited intestinal absorption
